pIC50: −log10 of the molar value. *1 amine or outer side, *2 acyl side, *3 side chain or, on linkers, in order; H or OH if unused. Where a SMILES comes first, the peptide text is derived from it. Bridges are numbered along the chain shown (N, C = ends). [ ]: non-standard residue; d: D form. 2Nal = N[C@@H](Cc1ccc2ccccc2c1)C(=O)O; AEF = NCCOc1ccc(C[C@H](N)C(=O)O)cc1; X1 = O=C(Cc1ccc(CN[*:1])cc1)[*:2]; 3Pal = N[C@@H](Cc1cccnc1)C(=O)O; αMeL = CC(C)C[C@](C)(N)C(=O)O; Dab = NCC[C@H](N)C(=O)O; Sar = CNCC(=O)O
What was measured:
human IL-23R = target: T1, human IL-23R (Homo sapiens, UniProt Q5VWK5); experiment: biochemical
T1 sequence (Q5VWK5 22-629): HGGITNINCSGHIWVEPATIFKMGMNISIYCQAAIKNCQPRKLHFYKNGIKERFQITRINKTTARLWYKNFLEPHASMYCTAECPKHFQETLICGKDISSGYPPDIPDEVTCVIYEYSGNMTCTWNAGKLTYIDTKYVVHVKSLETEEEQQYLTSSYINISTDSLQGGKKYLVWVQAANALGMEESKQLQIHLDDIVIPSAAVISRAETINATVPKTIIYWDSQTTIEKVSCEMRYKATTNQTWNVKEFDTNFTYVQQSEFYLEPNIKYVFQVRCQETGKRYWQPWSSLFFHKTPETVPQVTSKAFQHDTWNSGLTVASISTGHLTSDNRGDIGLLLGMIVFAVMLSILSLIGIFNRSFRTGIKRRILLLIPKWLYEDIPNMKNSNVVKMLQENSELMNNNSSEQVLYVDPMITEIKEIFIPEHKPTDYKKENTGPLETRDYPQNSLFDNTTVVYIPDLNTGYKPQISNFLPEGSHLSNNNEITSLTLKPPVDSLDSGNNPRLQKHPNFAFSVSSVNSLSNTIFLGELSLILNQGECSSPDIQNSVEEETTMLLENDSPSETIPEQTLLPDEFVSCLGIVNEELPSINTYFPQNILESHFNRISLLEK
How it was run: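 BRET displacement of a TAMRA-labelled reference compound from N-terminal Nanoluc-IL-23R fusion protein in membranes from stably transfected HEK293 cells. Incubation 2 h at room temperature, then Nanoluc substrate was added and the TAMRA/Nanoluc ratio read. IC50 and maximal displacement came from 4-parameter logistic fits.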

[1] = Peptide stability in simulated gastric fluid (SGF); assay type: in vitro ADME; details: pig, simulated gastric fluid (SGF) with porcine pepsin, 37 °C, pH 1.2, porcine pepsin 3.2 g/L
How it was run: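 Peptide incubated at 37 °C with gentle shaking in SGF (NaCl, pH 1.2). Samples centrifuged, diluted and analysed by LC-HRMS; percent remaining at each timepoint from absolute peak areas relative to time zero, with 4 h as the reference point.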

Structure (SMILES): CC(C)C[C@]1(C)NC(=O)[C@H](Cc2ccc3ccccc3c2)NC(=O)[C@H](Cc2ccc(OCCN)cc2)NC(=O)[C@@H]2CCNC(=O)CC[C@H](NC(=O)[C@H](CO)NC(=O)Cc3ccc(cc3)CNC(=O)CC[C@@H](C(=O)N[C@@H](CCN)C(=O)N[C@@H](Cc3c[nH]cn3)C(=O)N[C@@H](Cc3cccnc3)C(N)=O)NC1=O)C(=O)N[C@@H](Cc1c[nH]c3ccccc13)C(=O)N[C@@H](CCC(N)=O)C(=O)N2 [Compound 12, [4-Aminomethyl-phenylacetyl](1c)*SE(2c)WQ[Dab](2c)[Y(2-aminoethoxy)][2-Nal][2-Me-Leu]E(1c)[Dab]H[3-(3-Pyridyl)-Ala]-[NH2]] ([X1]SEWQ[Dab][AEF][2Nal][αMeL]E[Dab]H[3Pal]-NH2; lactam 3-6, N-10)
- % displacement (hIL-23R binding) (human IL-23R): 104%
- pIC50 (human IL-23R): 10.24
- remaining at 4 h, 10 µM [1]: 93%

Structure (SMILES): CC(C)C[C@]1(C)NC(=O)[C@H](Cc2ccc3ccccc3c2)NC(=O)[C@H](Cc2ccc(OCCN)cc2)NC(=O)[C@@H]2CCNC(=O)CC[C@H](NC(=O)[C@H](CO)NC(=O)Cc3ccc(cc3)CNC(=O)CC[C@@H](C(=O)N[C@@H](CCN)C(=O)NCCc3cccnc3)NC1=O)C(=O)N[C@@H](Cc1c[nH]c3ccccc13)C(=O)N[C@@H](CCC(N)=O)C(=O)N2 [Compound 7, [4-Aminomethyl-phenylacetyl](1c)*SE(2c)WQ[Dab](2c)[Y(2-aminoethoxy)][2-Nal][2-Me-Leu]E(1c)[Dab]-[NH-(2-(pyridin-3-yl)ethyl)]]
- pIC50 (human IL-23R): 10.92
- Emax (human IL-23R; read-out: % displacement (hIL-23R binding)): 102%
- remaining at 1 h, 10 µM [1]: 77%
- remaining at 4 h, 10 µM [1]: 82%

Structure (SMILES): CC(C)C[C@]1(C)NC(=O)[C@H](Cc2ccc3ccccc3c2)NC(=O)[C@H](Cc2ccc(OCCN)cc2)NC(=O)[C@@H]2CCNC(=O)CC[C@H](NC(=O)[C@H](CO)NC(=O)Cc3ccc(cc3)CNC(=O)CC[C@@H](C(=O)N[C@@H](CCN)C(=O)N[C@@H](Cc3cccnc3)C(=O)N(C)CC(N)=O)NC1=O)C(=O)N[C@@H](Cc1c[nH]c3ccccc13)C(=O)N[C@@H](CCC(N)=O)C(=O)N2 [Compound 9, [4-Aminomethyl-phenylacetyl](1c)*SE(2c)WQ[Dab](2c)[Y(2-aminoethoxy)][2-Nal][2-Me-Leu]E(1c)[Dab][3-(3-Pyridyl)-Ala][Sar]-[NH2]] ([X1]SEWQ[Dab][AEF][2Nal][αMeL]E[Dab][3Pal][Sar]-NH2; lactam 3-6, N-10)
- % displacement (hIL-23R binding) (human IL-23R): 100%
- pIC50 (human IL-23R): 11.28
- remaining at 1 h, 10 µM [1]: 96%

Structure (SMILES): CNC(=O)[C@H](Cc1cccnc1)NC(=O)[C@H](CCN)NC(=O)[C@@H]1CCC(=O)NCc2ccc(cc2)CC(=O)N[C@@H](CO)C(=O)N[C@H]2CCC(=O)NCC[C@H](NC(=O)[C@H](CCC(N)=O)NC(=O)[C@H](Cc3c[nH]c4ccccc34)NC2=O)C(=O)N[C@@H](Cc2ccc(OCCN)cc2)C(=O)N[C@@H](Cc2ccc3ccccc3c2)C(=O)N[C@@](C)(CC(C)C)C(=O)N1 [Compound 8, [4-Aminomethyl-phenylacetyl](1c)*SE(2c)WQ[Dab](2c)[Y(2-aminoethoxy)][2-Nal][2-Me-Leu]E(1c)[Dab][3-(3-Pyridyl)-Ala]-[NHMe]]
- % displacement (hIL-23R binding) (human IL-23R): 103%
- pIC50 (human IL-23R): 11.01

Structure (SMILES): CC(C)C[C@]1(C)NC(=O)[C@H](Cc2ccc3ccccc3c2)NC(=O)[C@H](Cc2ccc(OCCN)cc2)NC(=O)[C@@H]2CCNC(=O)CC[C@H](NC(=O)[C@H](CO)NC(=O)Cc3ccc(cc3)CNC(=O)CC[C@@H](C(=O)N[C@@H](CCN)C(=O)N(C)[C@@H](Cc3cccnc3)C(N)=O)NC1=O)C(=O)N[C@@H](Cc1c[nH]c3ccccc13)C(=O)N[C@@H](CCC(N)=O)C(=O)N2 [Compound 4, [4-Aminomethyl-phenylacetyl](1c)*SE(2c)WQ[Dab](2c)[Y(2-aminoethoxy)][2-Nal][2-Me-Leu]E(1c)[Dab][N-Me-3-(3-Pyridyl)-Ala]-[NH2]]
- % displacement (hIL-23R binding) (human IL-23R): 111%
- remaining at 1 h, 10 µM [1]: 97%

Structure (SMILES): CC(C)C[C@]1(C)NC(=O)[C@H](Cc2ccc3ccccc3c2)NC(=O)[C@H](Cc2ccc(OCCN)cc2)NC(=O)[C@@H]2CCNC(=O)CC[C@H](NC(=O)[C@H](CO)NC(=O)Cc3ccc(cc3)CNC(=O)CC[C@@H](C(=O)N[C@@H](CCN)C(=O)N[C@@](C)(Cc3cccnc3)C(N)=O)NC1=O)C(=O)N[C@@H](Cc1c[nH]c3ccccc13)C(=O)N[C@@H](CCC(N)=O)C(=O)N2 [Compound 3, [4-Aminomethyl-phenylacetyl](1c)*SE(2c)WQ[Dab](2c)[Y(2-aminoethoxy)][2-Nal][2-Me-Leu]E(1c)[Dab][2-Me-3-(3-Pyridyl)-Ala]-[NH2]]
- % displacement (hIL-23R binding) (human IL-23R): 99%
- pIC50 (human IL-23R): 10.47
- remaining at 1 h, 10 µM [1]: 99%

Structure (SMILES): CC(C)C[C@]1(C)NC(=O)[C@H](Cc2ccc3ccccc3c2)NC(=O)[C@H](Cc2ccc(OCCN)cc2)NC(=O)[C@@H]2CCNC(=O)CC[C@H](NC(=O)[C@H](CO)NC(=O)Cc3ccc(cc3)CNC(=O)CC[C@@H](C(=O)N[C@@H](CCN)C(=O)N[C@H](Cc3cccnc3)C(N)=O)NC1=O)C(=O)N[C@@H](Cc1c[nH]c3ccccc13)C(=O)N[C@@H](CCC(N)=O)C(=O)N2 [Compound 5, [4-Aminomethyl-phenylacetyl](1c)*SE(2c)WQ[Dab](2c)[Y(2-aminoethoxy)][2-Nal][2-Me-Leu]E(1c)[Dab][{d}3-(3-Pyridyl)-Ala]-[NH2]]
- % displacement (hIL-23R binding) (human IL-23R): 99%
- pIC50 (human IL-23R): 10.03
- remaining at 1 h, 10 µM [1]: 99%

Structure (SMILES): CC(C)C[C@]1(C)NC(=O)[C@H](Cc2ccc3ccccc3c2)NC(=O)[C@H](Cc2ccc(OCCN)cc2)NC(=O)[C@@H]2CCNC(=O)CC[C@H](NC(=O)[C@H](CO)NC(=O)Cc3ccc(cc3)CNC(=O)CC[C@@H](C(=O)N[C@@H](CCN)C(=O)N[C@H](Cc3c[nH]cn3)C(N)=O)NC1=O)C(=O)N[C@@H](Cc1c[nH]c3ccccc13)C(=O)N[C@@H](CCC(N)=O)C(=O)N2 [Compound 13, [4-Aminomethyl-phenylacetyl](1c)*SE(2c)WQ[Dab](2c)[Y(2-aminoethoxy)][2-Nal][2-Me-Leu]E(1c)[Dab][{d}H]-[NH2]]
- % displacement (hIL-23R binding) (human IL-23R): 100%
- pIC50 (human IL-23R): 10.23
- remaining at 4 h, 10 µM [1]: 78%

Structure (SMILES): CC(C)C[C@]1(C)NC(=O)[C@H](Cc2ccc3ccccc3c2)NC(=O)[C@H](Cc2ccc(OCCN)cc2)NC(=O)[C@@H]2CCNC(=O)CC[C@H](NC(=O)[C@H](CO)NC(=O)Cc3ccc(cc3)CNC(=O)CC[C@@H](C(=O)N[C@@H](CCN)C(=O)N[C@@H](Cc3cccnc3)C(=O)N[C@H](Cc3c[nH]cn3)C(N)=O)NC1=O)C(=O)N[C@@H](Cc1c[nH]c3ccccc13)C(=O)N[C@@H](CCC(N)=O)C(=O)N2 [Compound 10, [4-Aminomethyl-phenylacetyl](1c)*SE(2c)WQ[Dab](2c)[Y(2-aminoethoxy)][2-Nal][2-Me-Leu]E(1c)[Dab][3-(3-Pyridyl)-Ala][{d}H]-[NH2]] ([X1]SEWQ[Dab][AEF][2Nal][αMeL]E[Dab][3Pal][dH]-NH2; lactam 3-6, N-10)
- % displacement (hIL-23R binding) (human IL-23R): 91%
- pIC50 (human IL-23R): 11.24
- remaining at 1 h, 10 µM [1]: 97%
- remaining at 4 h, 10 µM [1]: 86%

Structure (SMILES): CC(C)C[C@]1(C)NC(=O)[C@H](Cc2ccc3ccccc3c2)NC(=O)[C@H](Cc2ccc(OCCN)cc2)NC(=O)[C@@H]2CCNC(=O)CC[C@H](NC(=O)[C@H](CO)NC(=O)Cc3ccc(cc3)CNC(=O)CC[C@@H](C(=O)N[C@@H](CCN)C(=O)NCCCCc3cccnc3)NC1=O)C(=O)N[C@@H](Cc1c[nH]c3ccccc13)C(=O)N[C@@H](CCC(N)=O)C(=O)N2 [Compound 6, [4-Aminomethyl-phenylacetyl](1c)*SE(2c)WQ[Dab](2c)[Y(2-aminoethoxy)][2-Nal][2-Me-Leu]E(1c)[Dab]-[NH-(4-(pyridin-3-yl)butanyl)]]
- % displacement (hIL-23R binding) (human IL-23R): 103%
